Numbered stars: 1 amine (or outer) side, 2 acyl side, 3 side chain; on linkers, the order of the positions; unused ones are H or OH. Bridge positions count the residues as written; N and C are the ends. Square brackets hold non-standard residues; d marks the D form. Peptide text beside a SMILES is read from it. I, II: the chains in the order shown. * marks the point of attachment. Actinocin(9to1) = Cc1c2oc3c(C)ccc(C(=O)[*:1])c3nc-2c(C(=O)[*:2])c(N)c1=O; NMeV = CN[C@H](C(=O)O)C(C)C; Cbz = O=C(OCc1ccccc1)*; Sar = CNCC(=O)O; CH2F = FC*
Experiments:
Type in all cases: cell-based, human
HeLa cells = assay: Apoptosis by DNA content analysis and flow cytometry in HeLa cells
[1] = test system: p34^cdc2 kinase activity (MPM-2 epitope) in MCF-7 cells; assay: MPM-2 mitotic phosphoepitope expression (p34^cdc2 kinase activity) in MCF-7 cells; settings: vincristine (FIG. 7)
Description: MPM-2 Mitotic Phosphoepitope Expression: For detection of mitotic phosphoproteins (D. D. Vandre et al. (1989) J. Cell Sci. 94: 245-58), MCF-7 cells (1-2×10^5 cells/60 mm dish) were treated with taxol (2 μM), adriamycin (100 nM), 50 or 300 J/m^2 UVB irradiation and cultured for 0, 8, 16, 24 or 36 h at 37° C. Cells were fixed in 70% ethanol, labeled with MPM-2 antibody (6 μg/ml) followed by addition of goat anti-mouse FITC (Boehringer Mannheim) for 1 h at 22° C. in the presence of 5 μg/ml propidium iodide (PI) containing 50 μg/ml RNase A. Samples were analyzed on a FACScan (Becton Dickinson, Mountain View, Calif.), using CellQuest software.
MPM-2 Mitotic Phosphoepitope Expression: For detection of mitotic phosphoproteins (D. D. Vandre et al. (1989) J. Cell Sci. 94: 245-258), MCF-7 cells (1-2×10^5 cells/60 mm dish) were treated with taxol (0.2 μM), or vincristine (100 nM) for increasing time intervals (8-36 h) at 37° C. Cells were fixed in 70% ethanol, labeled with MPM-2 antibody (6 μg/ml; Upstate Biotechnology, Lake Placid, N.Y.) followed by addition of goat anti-mouse FITC (Boehringer Mannheim) for 1 h at 22° C. in the presence of 5 μg/ml propidium iodide containing 50 μg/ml RNAse A. Samples were analyzed on a FACScan (Becton Dickinson, Mountain View, Calif.), using CellQuest software. Data are expressed as %MPM-2 positive cells in the entire population.

[2] = test system: survivin expression in HeLa cells; assay: Survivin expression by Western blotting in HeLa cells
Description: (§1) Cell Cultures, Proteins and Antibodies: Breast carcinoma MCF-7 and cervical carcinoma HeLa cells (American Type Culture Collection, Manassas, Va.) were maintained in culture according to the manufacturer's specifications. For treatment with genotoxic agents, HeLa or MCF-7 cells were incubated with vehicle (DMSO) or taxol (2 μM, Sigma Chemical Co., St. Louis, Mo.), adriamycin (100 nM, Sigma), cis-platin (3 μM, Sigma) or subjected to ultraviolet B (UVB) irradiation at 50 or 300 J/m^2. In some experiments, HeLa or MCF-7 treated with taxol, adriamycin or UVB as described above were incubated with inhibitors of transcription (actinomycin D, 1 μg/ml) or translation (cycloheximide, 2 mg/ml) before determination of protein expression by Western blotting. […] A replication-deficient adenovirus encoding wild type survivin (pAd-Survivin) or control encoding Green Fluorescence Protein (pAd-GFP) was generated using the pAd-Easy system as described previously (M. Mesri et al. (2001) J. Clin. Invest. 108: 981-90), and propagated in HEK293 cells with purification by CsCl banding. […] Antibodies to p34^cdc2 or bcl-2 were obtained from Pharmingen (San Diego, Calif.) and R&D, respectively. An antibody to β-actin was from Sigma and antibodies to MPM-2 mitotic phosphoproteins was from Upstate Biotechnology (Lake Placid, N.Y.).
(§2) In some experiments, total RNA was extracted from MCF-7 cells at various time intervals after adriamycin treatment, and hybridized with 32 P-labeled survivin cDNA as described previously. Radioactive bands were detected by autoradiography. […] In other experiments, samples were transferred to nylon membranes and analyzed by Western blotting with antibodies to p34^cdc2 (1 μg/ml), survivin (2 μg/ml), or survivinT34* (5 μg/ml).
In other experiments, HeLa cells were treated with taxol (0.2 μM) for 16 h followed by the DNA damaging agent adriamycin (100 nM, Sigma) or the nucleoside analog 5-Fluorouracil (500 μM, Sigma) for 8-32 h at 37° C. […] In some experiments, HeLa cells were transfected by lipofectamine with a minimal survivin promoter construct upstream of a luciferase reporter gene (pLuc-cyc1.2), as described (F. Li et al. (1998) Nature 396: 580-584). Cells were treated with taxol (2 μM) or UVB (50 J/m2), and analyzed for changes in luciferase activity at increasing time intervals (12-36 h) in a luminometer. Luciferase values were normalized to β-galactosidase expression. […] The immune complexes were separated by SDS gel electrophoresis and analyzed with antibodies to survivin or a-survivinT34* by Western blotting.

[3] = test system: p34^cdc2 kinase activity (MPM-2 epitope) in HeLa cells; assay: MPM-2 mitotic phosphoepitope expression (p34^cdc2 kinase activity) in HeLa cells; settings: HeLa
[4] = test system: survivin expression in MCF-7 cells; assay: Survivin expression by Western blotting in MCF-7 cells; settings: for effect on the increase in survivin expression mediated by adriamycin, taxol or 50 J/m^2 UVB: preincubation with cycloheximide 2 mg/ml or actinomycin D 1 μg/ml
Description: as §1, §2

MCF-7 cells = assay: Apoptosis by DNA content analysis and flow cytometry in MCF-7 cells; settings: taxol 2 μM, adriamycin 100 nM, cis-platin 3 μM (Example 7)
Description: Cervical carcinoma HeLa (functionally inactivated p53) cells or breast carcinoma MCF-7 (wild type p53) cells were plated at 50-60% confluency in C-6 wells. […]
After 4, 8, 16, and 32 hours of incubation, without removing taxol from the wells, purvalanol A was added at three increasing concentrations, 1, 10 and 20 uM (FIG. 1). A control was performed with addition of purvalanol A at the 0-h time point.
The cell populations were harvested at increasing time intervals from the 0-h time point or corresponding to the addition of purvalanol A. Apoptosis was analyzed by DNA content analysis and flow cytometry (DAPI staining).

[5] = genistein 25 μM or TNF a 5 ng/ml, 48 h

With `COC(=O)C[C@H](NC(=O)[C@H](C)NC(=O)[C@@H](NC(=O)OCc1ccccc1)C(C)C)C(=O)CF` [Z-VAD-fink, Z-VAD-fmk] (Cbz-Val-Ala-Asp(OMe)-CH2F) the “effect on flavopiridol-induced apoptosis” value (HeLa cells; preincubation with caspase inhibitor) was “suppressed flavopiridol-induced apoptosis”.
In the case of `CC[C@]1(O)C[C@H]2CN(CCc3c([nH]c4ccccc34)[C@@](C(=O)OC)(c3cc4c(cc3OC)N(C=O)[C@H]3[C@@](O)(C(=O)OC)[C@H](OC(C)=O)[C@]5(CC)C=CCN6CC[C@]43[C@@H]65)C2)C1` [vincristine], the cell cycle arrest (HeLa cells; vincristine 100 nM) is reported as “sustained mitotic (prometaphase) arrest”, the cdc2 kinase activity [1] is reported as “induces cdc2 kinase activity” and the survivin expression ([2]; vincristine 100 nM) is reported as “increased survivin expression”. The “p34^cdc2 kinase activity” value ([3]; vincristine 100 nM) was “elevated p34^cdc2 kinase activity”.
In the case of `C[C@@H]1C[C@@H]([C@H](O)CC2CC(=O)NC(=O)C2)C(=O)[C@@H](C)C1` [cycloheximide], the “effect on the increase in survivin expression mediated by adriamycin, taxol or 50 J/m^2 UVB” value [4] is reported as “significantly inhibited the increase in survivin expression”.
With `Cc1c2oc3c(C)ccc(C(=O)N[C@@H]4C(=O)N[C@H](C(C)C)C(=O)N5CCC[C@H]5C(=O)N(C)CC(=O)N(C)[C@@H](C(C)C)C(=O)O[C@@H]4C)c3nc-2c(C(=O)N[C@@H]2C(=O)N[C@H](C(C)C)C(=O)N3CCC[C@H]3C(=O)N(C)CC(=O)N(C)[C@@H](C(C)C)C(=O)O[C@@H]2C)c(N)c1=O` [actinomycin D] (I: T[dV]P[Sar][NMeV] / II: T[dV]P[Sar][NMeV]; ester I:1-I:C, II:1-II:C; linker I:N-II:N via Actinocin(9to1)) the “effect on the increase in survivin expression mediated by adriamycin, taxol or 50 J/m^2 UVB” value [4] was “significantly inhibited the increase in survivin expression”.
`O=c1[nH]cc(F)c(=O)[nH]1` [5-FU, 5-Fluorouracil] was tested, and the “enhancement of apoptosis vs single agent treatment” value (HeLa cells; taxol 0.2 μM 16 h then adriamycin 100 nM or 5-Fluorouracil 500 μM) was “did not result in enhanced apoptosis”.
`N.N.[Cl][Pt][Cl]` [cis-platin] was tested, and the “effect on survivin levels” value ([4]; cis-platin 3 μM) was “did not affect survivin levels”, the “increased expression of survivin, compared with taxol” value ([4]; cisplatin 3 μM) was “less effective” and the apoptosis (MCF-7 cells) was “negligible apoptosis”. The cell cycle arrest (MCF-7 cells) was “G2/M arrest”.
With `O=C1Cc2c([nH]c3ccc([N+](=O)[O-])cc23)-c2ccccc2N1` [alsterpaullone] the “MPM-2 mitotic phosphoepitope expression” value ([3]; taxol 0.2 μM 16 h then Cdk inhibitor for 16 h (Purvalanol A 10 μM, alsterpaullone 20 μM, flavopiridol 250 nM, olomoucine 400 μM)) was “partially inhibited MPM-2 expression” and the “MPM-2 mitotic phosphoepitope expression” value ([3]; taxol 0.2 μM 16 h then Cdk inhibitor for 32 h) was “suppressed mitotic phosphoprotein expression”.
`O=c1c(-c2ccc(O)cc2)coc2cc(O)cc(O)c12` [genistein] was tested, and the survivin expression [2, 5] was “did not affect survivin expression”.
For TNF a, the survivin expression [2, 5] was “did not affect survivin expression”.
